For test [1], the system named is Staphylococcus aureus. In words: Inhibition of DNA synthesis in Staphylococcus aureus ATCC 29213 at 1 times MIC preincubated for 30 mins followed by [3H]-thymidine and measured after 30 mins by [3H]-thymidine incorporation based beta scintillation counter analysis. The format is functional. The following applies: time 60 min; 1 h. (In general: Incorporation of labelled thymidine or its analogues reports DNA synthesis.)

For test [2], the system named is Staphylococcus aureus. In words: Inhibition of protein synthesis in Staphylococcus aureus ATCC 29213 at 0.25 times MIC preincubated for 30 mins followed by [3H]-leucine and measured after 40 mins by [3H]-leucine incorporation based beta scintillation counter analysis. It counts as functional. As to conditions: time 70.0 min.
In test [3] the test system is Staphylococcus aureus. Description: Bactericidal activity against Staphylococcus aureus ATCC 700699 persisters assessed as log reduction in colony forming unit at 32 times MIC measured for 4 hrs by time kill assay. It counts as functional.
For test [4], the system named is Enterococcus faecium. In words: Antibacterial activity against Enterococcus faecium clinical isolate 1088228 assessed as inhibition of bacterial growth by CLSI protocol based broth microdilution method. It counts as functional. In general terms: Broth dilution looks for growth in wells or tubes with falling amounts of substance.
The test system of test [5] is Enterococcus faecalis. Description: Antibacterial activity against Enterococcus faecalis clinical isolate 1094112 assessed as inhibition of bacterial growth by CLSI protocol based broth microdilution method. The format is functional.
In test [6] the test system is Staphylococcus aureus. Description: Antibacterial activity against antibiotic resistant Staphylococcus aureus ATCC 33592 assessed as inhibition of bacterial growth by CLSI protocol based broth microdilution method. It counts as functional.
Test [7] relates to Staphylococcus aureus. Description: Antibacterial activity against Staphylococcus aureus ATCC 29213 assessed as inhibition of bacterial growth by CLSI protocol based broth microdilution method. The format is functional.
The test system of test [8] is Staphylococcus aureus. Description: Bactericidal activity against Staphylococcus aureus ATCC 700699 persisters assessed as log reduction in colony forming unit at 16 times MIC measured for 4 hrs by time kill assay. The format is functional.
The test system of test [9] is Enterococcus faecium. In words: Antibacterial activity against Enterococcus faecium clinical isolate 1089544 assessed as inhibition of bacterial growth by CLSI protocol based broth microdilution method. It counts as functional.
Test [10] has as its system Staphylococcus epidermidis. In words: Antibacterial activity against antibiotic resistant Staphylococcus epidermidis ATCC 700296 assessed as inhibition of bacterial growth by CLSI protocol based broth microdilution method. It counts as functional.
Test [11] relates to Enterococcus faecalis. Description: Anti-biofilm activity against Enterococcus faecalis ATCC 29212 assessed as biofilm eradication at 3.125 to 12.5 ug/ml incubated for 24 hrs by Calgary biofilm device assay. The format is functional, organism-based. As to conditions: dose 3.125-12.5 µg/ml.
Test [12] concerns Staphylococcus aureus. In words: Bactericidal activity against Staphylococcus aureus ATCC 700699 persisters assessed as log reduction in colony forming unit at 16 times MIC after 4 hrs by colony counting method. The format is functional.
A further test deals with Bacillus subtilis. Description: Antibacterial activity against antibiotic resistant Bacillus subtilis ATCC 6623 assessed as inhibition of bacterial growth by CLSI protocol based broth microdilution method. It counts as functional.
Test [13] has as its system Staphylococcus aureus. Description: Anti-biofilm activity against Staphylococcus aureus ATCC 25923 assessed as eradication of biofilm formation incubated for 24 hrs by Calgary biofilm device assay. As to conditions: Staphylococcus aureus, ATCC 25923. It counts as functional.
Test [14] deals with Enterococcus faecalis. Description: Antibacterial activity against Enterococcus faecalis clinical isolate 1100440 assessed as inhibition of bacterial growth by CLSI protocol based broth microdilution method. It counts as functional.
Test [15] concerns Staphylococcus aureus. Description: Antibacterial activity against Staphylococcus aureus clinical isolate 1088105 assessed as inhibition of bacterial growth by CLSI protocol based broth microdilution method. It counts as functional.

Converted amounts (≈) assume the structure as drawn. The source made the active and inactive calls.

From ChEMBL document CHEMBL5107949, “Design, synthesis, and antibacterial activity of N-(trifluoromethyl)phenyl substituted pyrazole derivatives” (RSC Med Chem, 2021) come the findings set out here.

A word on the inhibition: it is the percentage by which the read-out fell short of the control. Lower therefore signals a response near the control. Usually MIC stands for the smallest concentration in the dilution series that meets the test's criterion for growth inhibition.

Regarding `O=C(O)c1ccc(-c2nn(-c3ccc(C(F)(F)F)cc3)cc2CNc2ccc(Br)c(C(F)(F)F)c2)cc1`, the “inhibition (INH)” value in the test on Staphylococcus aureus [1] is recorded as 76%. Besides, the inhibition with Staphylococcus aureus [2] is 55.4%. The figures for the “log(activity)” value in the test with Staphylococcus aureus [3], in the test with Staphylococcus aureus [8] and in the test on Staphylococcus aureus [12] were 5, 3 and more than 2, respectively. For the same compound, the MIC with Enterococcus faecium [4] came out at 8 µg/mL (≈ 13.7 µM); in the test with Enterococcus faecalis [5] it was 8 µg/mL (≈ 13.7 µM); in the test with Staphylococcus aureus [6], 0.78 µg/mL (≈ 1.33 µM); in the test with Staphylococcus aureus [7] it was 1 µg/mL (≈ 1.71 µM); in the test on Enterococcus faecium [9], 8 µg/mL (≈ 13.7 µM); in test [10], 1.56 µg/mL (≈ 2.67 µM). In addition, the MIC in the test on Bacillus subtilis was 0.39 µg/mL (≈ 0.667 µM); in the test on Enterococcus faecalis [14], 8 µg/mL (≈ 13.7 µM); with Staphylococcus aureus [15] it was 4 µg/mL (≈ 6.85 µM). Besides, the result with Enterococcus faecalis [11] was Active. Further, the MBEC with Staphylococcus aureus [13] amounted to 6.25 µg/mL.
